Source: patent publication US11116774B2, “Modulators of toll-like receptors for the treatment of HIV” (Gilead Sciences, Inc., priority 2014, dated 2021)
Where “and” joins values, the source holds several entries; their conditions need not be identical. Equal entries are not always repeated.

Key:
[1] = test system: HIV in PBMCs from HIV-infected donors on suppressive cART; assay: Activation of HIV by Example 49 ex vivo in PBMCs (Example 210); assay type: cell-based, human; conditions: N = 18 donors, day 4
Procedure: PBMCs from 18 HIV-infected donors (Donor IDs 152-169) on suppressive cART were isolated, as described previously in Materials and Methods (PBMC Isolation), and immediately added to tissue culture plates pre-equilibrated at 37° C. with media containing DMSO or the compound of Example 49 (GS-9620) at 0.1 uM or 1.0 uM. At day 4 after treatment, cell-free culture supernatants were collected and HIV viral RNA was quantitated using the automated COBAS® AmpliPrep/COBAS® TaqMan® HIV-1 Test, v2.0 system (Roche Diagnostics, Indianapolis, Ind.), as described previously in Materials and Methods (HIV-1 Activation Assay). Geometric mean fold HIV activations from three independent wells for each donor and each condition were expressed as a ratio of HIV-1 RNA copies/ml detected in culture supernatants from TLR7 agonist treated and DMSO treated wells. Fold HIV activation values were plotted using GraphPad Prism software (GraphPad, San Diego, Calif.) and can be seen in FIG. 7. The dashed line indicates 2-fold induction.

[2] = test system: HIV-infected CD4 T cells (HIV-1 clinical isolate HT593); assay: Killing of HIV-infected CD4 T cells by combination of Example 49 and HIV antibody PGT121 (Example 218); assay type: cell-based, human; conditions: 5 days, combined with PGT121, two donors
Procedure: PBMCs from […] (AllCells: Donor IDs A4593, A4596, A4606) were isolated, as described previously. PBMCs were treated with DMSO or with the compound of Example 49 (GS-9620) at 0.1 uM or 1 uM in replicate culture sets of 8 for 5 days. In parallel, total CD4 T cells were isolated from each donors' PBMCs using the EasySep Human CD4+ T cell Enrichment Kit (Stemcell Technologies). CD4 T cells were infected in bulk with the HIV-1 clinical isolate HT593 (NIH AIDS Reagent Program) using 50-100 ng p24/million CD4 T cells by spinfecting at 1200×g for 2 hours. HIV-infected CD4 T cells were incubated for 5 days at 37° C. in RPMI plus 10% FBS with 30 U/mL IL-2 (Invitrogen). After 5 days in culture, HIV-infected CD4 T cells were washed, counted, and added to PBMCs from the autologous donor at a ratio of 20 PBMCs to 1 CD4 T cell (20:1). To each co-culture replicate, HIV antibody PGT121 (Gilead Sciences, Inc.) was added at concentrations from 6.7e-5 nM to 6.7e2 nM. Co-cultures were incubated with or without HIV antibody for 1 day at 37° C.
Co-cultures were collected and stained with live/dead Fixable Aqua Dead Cell Stain (Invitrogen) and PE-Cy7-labeled antibody to CD4 (BD Biosciences). Cells were fixed and permeabilized, as described previously, and stained with PE labeled antibody to HIV Gag protein p24 (Beckman Coulter). FACS was performed on a LSR Fortessa (BD Biosciences) and data analysis was done with FlowJo software (TreeStar). Data was plotted and statistical analysis was done with GraphPad Prism software (GraphPad). Killing of HIV-infected CD4 T cells was calculated as a reduction of CD4+p24+ T cells at each PGT121 concentration relative to cultures without PGT121.

[3] = test system: polyfunctional proliferating CD8 T cells (CFSE low, IFNg+, TNFa+); assay: Induction of HIV-specific polyfunctional CD8 T cells by combination with an IDO1 inhibitor (Example 217); assay type: cell-based, human; conditions: 0.1 uM; PBMCs from 4 HIV-infected donors; 8 days
Procedure: PBMCs from 4 HIV-infected donors (Donor IDs 180-183) on suppressive cART were isolated, as described previously, stained with CFSE, and treated with 500 ng/ml 15-mer peptide pools derived from overlapping HIV gag, pol, nef, and env consensus peptides (JPT Peptide Technologies GmbH). PBMC cultures were treated with DMSO or the compound of Example 49 (GS-9620) at 0.1 uM. In some cultures treated with Example 49, the IDO1 small molecule inhibitor, INCB024360, was combined at 2 μM. Cells were incubated at 37° C. for 8 days, then split into duplicate sets and stained in DPBS with LIVE/DEAD Fixable Aqua Dead Cell Stain (Life Technologies). The immune recall response was performed as previously described. FACS was performed on a LSR Fortessa (BD Biosciences) and data analysis was done with FlowJo software (TreeStar). Data was plotted and statistical analysis was done with GraphPad Prism software (GraphPad).

[4] = test system: HIV in PBMCs from HIV-infected donors; human Interferon α/β receptor chain 2 blocked; assay: HIV activation with and without IFNα/β receptor block (Example 212); assay type: cell-based; conditions: Example 49 10 nM to 10 uM with anti-IFNα/β receptor chain 2 mAb MMHAR-2 at 1:500; day 4; 4 donors; p<0.05
Procedure: PBMCs from HIV-infected donors on suppressive cART were isolated, as before, and treated with the compound of Example 49 (GS-9620) at the doses indicated (10 nM to 10 uM) in the presence or absence of a mouse monoclonal antibody (clone MMHAR-2) against the human Interferon α/β receptor chain 2 (PBL Assay Science, Piscataway, N.J., Cat #21385-1) used at 1:500 dilution. At day 4 after treatment, cell-free culture supernatant was collected and HIV viral RNA was quantitated using the AmliPrep/COBAS® TaqMan® assay. Fold HIV activation in PBMCs from two HIV-infected donors treated with the compound of Example 49 alone and in combination with the anti-IFNα/β mAB (IFNAR block) is depicted in FIG. 8.

CCCCOc1nc(N)c2c(n1)N(Cc1cccc(CN3CCCC3)c1)CC(=O)N2 [Example 49]
Fold geometric mean (HIV activation) ([1]; 100 nM): 9.3 fold
Fold range (HIV activation) ([1]; 100 nM): 2.7-26.6 fold
N (%) with ≥2-fold activation ([1]; 100 nM): 10 (56) N (%)
Fold geometric mean (HIV activation) ([1]; 1,000 nM): 6.5 fold
Fold range (HIV activation) ([1]; 1,000 nM): 2.0-21.5 fold
N (%) with ≥2-fold activation ([1]; 1,000 nM): 11 (61) N (%)
Fold geometric mean (HIV activation) ([1]; 100 and/or 1,000 nM): 9.1 fold
Fold range (HIV activation) ([1]; 100 and/or 1,000 nM): 2.0-26.6 fold
N (%) with ≥2-fold activation ([1]; 100 and/or 1,000 nM): 13 (72) N (%)
increase of AUC relative to DMSO controls ([2]; Example 49 0.1 uM): 32% and 52%
increase of maximal killing relative to DMSO controls ([2]; Example 49 0.1 uM): 30% and 38%
increase of AUC relative to DMSO controls ([2]; Example 49 1 uM): 52% and 73%
increase of maximal killing relative to DMSO controls ([2]; Example 49 1 uM): 50% and 48%
increase of mean level of polyfunctional proliferating CD8 T cells compared to DMSO [3]: 2.9 fold
mean maximal reduction of fold HIV activation by IFNAR block [4]: 85%
